Assays:
CP-AMPAR = test: Ca2+ imaging of hippocampal brain slices, AMPA+CTZ application, ob/ob mice; format: cell-based, mouse
[1] = tested on: neurospheres established from NL-G-F(−/−) mice; test: Neurosphere culture from NL-G-F(-/-) mouse hippocampus: Aβ42/Aβ40 EIA and Aβ staining; format: cell-based
Source text: Biomarkers of Alzheimer's dementia include the Aβ42/Aβ40 ratio of cerebrospinal fluid (CSF) and plasma levels, phosphorylated tau (P-tau) in threonines 181 and 217, and neurofilament lite (NfL) (Curr Opin Neurol 2021 1 266-274). The Aβ42/Aβ40 ratio is considered to be able to predict Aβ accumulation in PET (Doecke J D et al., Neurology 2020). Hippocampus on 17 to 19 days of NL-G-F(−/−) mouse embryonic life was taken out and cultured by a Neurosphere method by Brewer G J et al. (Nat Protoc 2007 2, 1490-1498), and a supernatant was measured by an EIA method using this culture system. The change in the Aβ42/Aβ40 ratio by the perampanel (50 μM/methyl cellulose 4 μL) was analyzed. In 4 μL of a 0.5 w/v % aqueous solution of methyl cellulose 400, 5×10^4 spheres smaller than 50 μm in diameter were cultured in 50 ml Falcon Flask coated with poly-D-lysine/laminin, and Aβ42 and Aβ40 of the supernatant were measured by EIA method on the second day (FIG. 29A) and the fourth day (FIG. 29B) of culture. The solvent was administered 12 hours after seeding.

NMDAR = test: Ca2+ imaging of hippocampal brain slices, NMDA+glycine application (NMDA reaction), HFD-fed mice; format: cell-based, mouse; settings: slices of HFD-fed mice given PER 5 mg/kg/day orally, 50 μM NMDA + 10 μM glycine, N=5
AMPAR (CP-AMPAR) = test: Ca2+ imaging of hippocampal brain slices, AMPA+CTZ application (CP-AMPA reaction), HFD-fed mice; format: cell-based; settings: slices of HFD-fed mice given PER 5 mg/kg/day orally, 100 μM AMPA + 100 μM CTZ, N=5
Protocol: First, the intracellular calcium concentration ([Ca^2+]i) was directly measured in an acute brain slice of the hippocampus having a perihippocampal region using a mouse obesity model associated with HFD feeding (composition of diet (7) shown in Table 1) for 12 weeks after weaning to track calcium signaling (FIG. 1A: supplementary data moving image 1) in the hippocampus. HFD-fed mice received […] containing 100 μM CTZ (cyclothiazide; […]) applied to EC (entorhinal cortex), CA1 (cornu ammonis 1), CA2, CA3, and DG (dentate gyrus). The F525 normalized before and after application was compared.

NL-GF mice = test: Novel object recognition test, AD model mice (NL-GF); format: in vivo, mouse; settings: NL-GF mice n=5; CD diet with perampanel 5 mg/kg body weight/day from 8 to 13 weeks of age
Protocol: Mice of CD, HFD, and HFD with PER treatment were handled daily for 5 minutes for 5 days prior to the start of the novel object recognition test. PER means the perampanel, which is an AMPA receptor antagonist. The mice were habituated to a 35 cm square, 25 cm high box for 10 minutes on the first day, and were given 2 identical objects (familiar objects) for 10 minutes on the second day. On the third day, one of the familiar objects was replaced with a novel object of different shape and color (FIG. 2F). […] The search time for each object was measured by offline analysis (47).
NL-GF mice begin to accumulate in the brain of Aβ from 8 weeks of age (Nat. Neurosci. 2014 17,661-4). In this example, the AD model mouse (n=5) was fed a CD diet containing a perampanel at a dose of 5 mg/kg body weight/day from 8 to 13 weeks of age, and the mouse was subjected to a novel object recognition test. In the negative control (n=5), a normal CD diet without perampanel was taken.

N#Cc1ccccc1-c1cc(-c2ccccn2)cn(-c2ccccc2)c1=O [PER, 3-(2-cyanophenyl)-5-(2-pyridyl)-1-phenyl-1,2-dihydropyridine-2-one] was tested, and the “inhibitory effect on CP-AMPAR in EC, CA1, CA2, CA3, DG” value (CP-AMPAR; ob/ob mice slices, 100 μM, p<0.05 (FIG. 10-1A)) was “significant inhibitory effect”, the “Ca2+ permeability via CP-AMPAR in all hippocampal subregions” value (CP-AMPAR; ob/ob mice, PER administration, p<0.05) was “significant inactivation” and the “Aβ staining of the culture” value ([1]; fourth day of culture, formic acid treatment) was “decrease in Aβ”. The “Aβ42/Aβ40 ratio of the culture supernatant (EIA)” value ([1]; perampanel 50 μM/methyl cellulose 4 μL, second and fourth day of culture) was “significantly increased”, the “NMDA reaction CA1 (maximum value of NF525)” value (NMDAR; CA1) was 1.20 ± 0.08 (N = 5) and the “NMDA reaction CA2 (maximum value of NF525)” value (NMDAR; CA2) was 1.20 ± 0.09 (N = 5). The “NMDA reaction CA3 (maximum value of NF525)” value (NMDAR; CA3) was 1.12 ± 0.04 (N = 5), the “NMDA reaction DG (maximum value of NF525)” value (NMDAR; DG) was 1.17 ± 0.04 (N = 5) and the “NMDA reaction EC (maximum value of NF525)” value (NMDAR; EC) was 1.16 ± 0.06 (N = 5). For the same molecule, the “CP-AMPA reaction CA1 (maximum value of NF525)” value (AMPAR (CP-AMPAR); CA1) was 1.00 ± 0.01 (N = 5), the “CP-AMPA reaction CA2 (maximum value of NF525)” value (AMPAR (CP-AMPAR); CA2) was 1.00 ± 0.02 (N = 5) and the “CP-AMPA reaction CA3 (maximum value of NF525)” value (AMPAR (CP-AMPAR); CA3) was 1.00 ± 0.01 (N = 5). For the same molecule, the “CP-AMPA reaction DG (maximum value of NF525)” value (AMPAR (CP-AMPAR); DG) was 1.02 ± 0.01 (N = 5), the “CP-AMPA reaction EC (maximum value of NF525)” value (AMPAR (CP-AMPAR); EC) was 1.05 ± 0.05 (N = 5) and the “novel object recognition test” value (NL-GF mice) was “significantly distinguish”.
